This assay deals with T1, CCR2 (Homo sapiens, UniProt P41597).
T1 construct: cell membranes containing 6×10^6cells/ml equivalent; endogenous in cells; host or cells: THP1 cells (membrane fragments)
T1 sequence (P41597 1-360 isoform P41597-2): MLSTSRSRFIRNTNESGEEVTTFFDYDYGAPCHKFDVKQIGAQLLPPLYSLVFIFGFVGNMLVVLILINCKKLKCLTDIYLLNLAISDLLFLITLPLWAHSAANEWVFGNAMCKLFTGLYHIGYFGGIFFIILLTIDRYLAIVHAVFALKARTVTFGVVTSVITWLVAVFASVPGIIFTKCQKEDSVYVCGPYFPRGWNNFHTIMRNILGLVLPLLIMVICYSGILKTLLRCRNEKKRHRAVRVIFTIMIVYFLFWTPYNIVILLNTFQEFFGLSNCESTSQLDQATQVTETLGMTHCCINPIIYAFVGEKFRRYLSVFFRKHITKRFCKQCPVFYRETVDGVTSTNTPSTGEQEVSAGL
The assay can be described thus: hMCP-1 THP1 receptor-binding assay (125I-labeled MCP-1, SPA, THP1 cell membranes). To be noted: 250 pM 125I-labeled MCP-1, THP1 cell membranes, room temperature 16 hours; read-out: CCR2 Binding pIC50 (converted). The method, then:
hMCP-1 THP1 Receptor-Binding Assay
i) Preparation of Membrane Fragments
THP1 cells were grown in RPMI (Sigma) supplemented with 10% foetal calf serum, 2 mM glutamine (Gibco), 100 units/ml Penicillin and 100 μg/ml Streptomycin (Invitrogen). Membrane fragments were prepared using cell lysis/differential centrifugation methods as described previously (Siciliano et al., 1990, J. Biol. Chem., 265, 19658). Protein concentration was estimated by BCA protein assay (Pierce, Rockford, Ill.) according to the manufacturer's instructions.
^125I-labeled MCP-1 was prepared using Bolton and Hunter conjugation (Bolton et al., 1973, Biochem. J., 133, 529; Amersham International plc).
Test compounds were dissolved in DMSO and further diluted in assay buffer (50 mM HEPES, 1 mM CaCl2, 5 mM MgCl2, 1 mM EDTA, 0.03% BSA, pH 7.2) to give a range of concentrations starting with a top final concentration of up to 10 μM. […] Incubations contained 250 pM ^125I-labeled MCP-1 (GE Healthcare), 0.5 mg Scintillation proximity assay beads (GE Healthcare RPNQ001) and cell membranes containing 6×10^6cells/ml equivalent. Non-specific binding was determined by the inclusion of 10 μM of a known CCR2b antagonist in the place of test compound. Total binding was determined in the presence of 1% DMSO without compound. Incubations were performed in sealed optiplates and kept at room temperature for 16 hours after which the plates were counted on a Packard TopCount (Packard TopCount™). Dose-response curves were generated using “in-house” data analysis package incorporating Origin software to determine IC50 values. Percent inhibitions were calculated for single concentrations of compound by using the following formula 100−((compound binding minus non-specific binding)/(total binding minus non-specific binding)×100).

On to `Cc1cc(NC(=O)N2CCN(C(=O)[C@H]3CN(C(C)(C)C)CCN3)CC2)ccc1Cl` [Example 11, 4-[(2R)-4-tert-butylpiperazine-2-carbonyl]-N-(4-chloro-3-methylphenyl)piperazine-1-carboxamide], for which the IC50 is 2.29 nM.
For `CC(C)(C)N1CCN[C@@H](C(=O)N2CCN(C(=O)Nc3ccc(C#N)c(C(F)(F)F)c3)CC2)C1` [Example 8, 4-[(2R)-4-tert-butylpiperazine-2-carbonyl]-N-[4-cyano-3-(trifluoromethyl)phenyl]piperazine-1-carboxamide] the value was 7.24 nM; for `CC(C)(C)N1CCN[C@@H](C(=O)N2CCN(C(=O)Nc3ccc(OC(F)(F)F)c(Cl)c3)CC2)C1` [Example 13, 4-[(2R)-4-tert-butylpiperazine-2-carbonyl]-N-[3-chloro-4-(trifluoromethoxy)phenyl]piperazine-1-carboxamide], under 0.871 nM.
`CC(C)(C)N1CCN[C@@H](C(=O)N2CCN(C(=O)Nc3cccc(OCc4ccccc4)c3)CC2)C1` [Example 12, 4-[(2R)-4-tert-butylpiperazine-2-carbonyl]-N-(3-phenylmethoxyphenyl)piperazine-1-carboxamide]: the IC50 was 1.82 nM.
Then `Cc1nc(NC(=O)N2CCN(C(=O)[C@H]3CN(C(C)(C)C)CCN3)CC2)sc1Cl` [Example 16, 4-[(2R)-4-tert-butylpiperazine-2-carbonyl]-N-(5-chloro-4-methyl-1,3-thiazol-2-yl)piperazine-1-carboxamide], with 1.26 nM; and `CC(C)(C)N1CCN[C@@H](C(=O)N2CCN(C(=O)Nc3cccc(C(F)(F)F)c3)CC2)C1` [Example 1, 4-[(2R)-4-tert-butylpiperazine-2-carbonyl]-N[3(trifluoromethyl)phenyl]piperazine-1-carboxamide], with 3.09 nM; and `CC(C)(C)N1CCN[C@@H](C(=O)N2CCN(C(=O)Nc3ccc(F)c(Cl)c3)CC2)C1` [Example 7, 4-[(2R)-4-tert-butylpiperazine-2-carbonyl]-N-(3-chloro-4-fluorophenyl)piperazine-1-carboxamide], with 8.51 nM.
For `Cc1ccc(NC(=O)N2CCN(C(=O)[C@H]3CN(C(C)(C)C)CCN3)CC2)cc1C(F)(F)F` [Example 6, 4-[(2R)-4-tert-butylpiperazine-2-carbonyl]-N-[4-methyl-3-(trifluoromethyl)phenyl]piperazine-1-carboxamide] the value was 1.82 nM; for `CCc1nc(NC(=O)N2CCN(C(=O)[C@H]3CN(C(C)(C)C)CCN3)CC2)sc1Cl` [Example 15, 4-[(2R)-4-tert-butylpiperazine-2-carbonyl]-N-(5-chloro-4-ethyl-1,3-thiazol-2-yl)piperazine-1-carboxamide], under 0.447 nM; for `CC(C)(C)N1CCN[C@@H](C(=O)N2CCN(C(=O)Nc3nc(C(F)(F)F)c(Cl)s3)CC2)C1` [Example 17, 4-[(2R)-4-tert-butylpiperazine-2-carbonyl]-N-[5-chloro-4-(trifluoromethyl)-1,3-thiazol-2-yl]piperazine-1-carboxamide], under 0.447 nM.
Then `Cc1nc(NC(=O)N2CCN(C(=O)[C@H]3CN(C(C)(C)C)CCN3)CC2)sc1Br` [Example 14, N-(5-bromo-4-methyl-1,3-thiazol-2-yl)-4-[(2R)-4-tert-butylpiperazine-2-carbonyl]piperazine-1-carboxamide], with 2.75 nM; and `CC(C)(C)N1CCN[C@@H](C(=O)N2CCN(C(=O)Nc3ccc(F)c(C(F)(F)F)c3)CC2)C1` [Example 5, 4-[(2R)-4-tert-butylpiperazine-2-carbonyl]-N-[4-fluoro-3(trifluoromethyl)phenyl]piperazine-1-carboxamide], with 2 nM; and `CC(C)(C)N1CCN[C@@H](C(=O)N2CCN(C(=O)Nc3cccc(Cl)c3)CC2)C1` [Example 2, 4-[(2R)-4-tert-butylpiperazine-2-carbonyl]-N-(3-chlorophenyl)piperazine-1-carboxamide], with 2.57 nM.
With `CC(C)(C)N1CCN[C@@H](C(=O)N2CCN(C(=O)Nc3cccc(OC(F)(F)C(F)F)c3)CC2)C1` [Example 10, 4-[(2R)-4-tert-butylpiperazine-2-carbonyl]-N-[3-(1,1,2,2-tetrafluoroethoxy)phenyl]piperazine-1-carboxamide], the IC50 is 6.76 nM.
Turning to `CC(C)(C)N1CCN[C@@H](C(=O)N2CCN(C(=O)Nc3cccc(SC(F)(F)F)c3)CC2)C1` [Example 3, 4-[(2R)-4-tert-butylpiperazine-2-carbonyl]-N-[3-(trifluoromethylsulfanyl)phenyl]piperazine-1-carboxamide], the IC50 is 2.82 nM.
For `CC(C)(C)N1CCN[C@@H](C(=O)N2CCN(C(=O)Nc3ccc(Cl)c(F)c3)CC2)C1` [Example 9, 4-[(2R)-4-tert-butylpiperazine-2-carbonyl]-N-(4-chloro-3-fluorophenyl)piperazine-1-carboxamide] the value was 2.57 nM; for `CC(C)(C)N1CCN[C@@H](C(=O)N2CCN(C(=O)Nc3ccc(Br)cc3)CC2)C1` [Example 4, N-(4-bromophenyl)-4-[(2R)-4-tert-butylpiperazine-2-carbonyl]piperazine-1-carboxamide], 6.76 nM.

(Values after patent US20100152197A1, “(4-TERT-BUTYLPIPERAZIN-2-YL)(PIPERAZIN-1-YL)METHANONE-N-CARBOXAMIDE DERIVATIVES” (ASTRAZENECA AB, priority 2008, published 2010).)
